Results as given in ChEMBL document CHEMBL4610081, “Anti-inflammatory Metabolites from Chaetomium nigricolor” (J Nat Prod, 2020).
Activity calls are given as the source filed them. No cut-off for these calls is given here.

How the values were obtained:
[1] = tested on: RAW264.7; experiment: Trans-suppression of NFkappaB in mouse RAW264.7 cells assessed as LPS-induced nuclear-p65 level at 2.5 uM preincubated for 3 hrs followed by LPS-stimulation and measured after 1 hr by Western blot analysis (reference value: 3.3); format: cell-based
[2] = tested on: RAW264.7; experiment: Trans-suppression of NFkappaB in mouse RAW264.7 cells assessed as LPS-induced nuclear-p65 level at 5 uM preincubated for 3 hrs followed by LPS-stimulation and measured after 1 hr by Western blot analysis (reference value: 3.3); format: cell-based
[3] = tested on: RAW264.7; experiment: Trans-suppression of NFkappaB in mouse RAW264.7 cells assessed as LPS-induced nuclear-p65 level at 10 uM preincubated for 3 hrs followed by LPS-stimulation and measured after 1 hr by Western blot analysis (reference value: 3.3); format: cell-based
[4] = tested on: RAW264.7; experiment: Trans-suppression of NFkappaB in mouse RAW264.7 cells assessed as LPS-induced nuclear-p50 level at 2.5 uM preincubated for 3 hrs followed by LPS-stimulation and measured after 1 hr by Western blot analysis (reference value: 3.2); format: cell-based
[5] = tested on: RAW264.7; experiment: Trans-suppression of NFkappaB in mouse RAW264.7 cells assessed as LPS-induced nuclear-p50 level at 5 uM preincubated for 3 hrs followed by LPS-stimulation and measured after 1 hr by Western blot analysis (reference value: 3.2); format: cell-based
[6] = tested on: RAW264.7; experiment: Trans-suppression of NFkappaB in mouse RAW264.7 cells assessed as LPS-induced nuclear-p50 level at 10 uM preincubated for 3 hrs followed by LPS-stimulation and measured after 1 hr by Western blot analysis (reference value: 3.2); format: cell-based
[7] = tested on: RAW264.7; experiment: Trans-suppression of NFkappaB in mouse RAW264.7 cells assessed as reduction in LPS-induced DNA binding at 2.5 to 10 uM preincubated for 3 hrs followed by LPS-stimulation and measured after 1 hr by TransAM assay; format: cell-based
[8] = tested on: RAW264.7; experiment: Inhibition of LPS-induced ERK phosphorylation in mouse RAW264.7 cell at 2.5 uM preincubated for 3 hrs followed by LPS-stimulation and measured after 1 hr by Western blot analysis (reference value: 6.92); format: cell-based
[9] = tested on: RAW264.7; experiment: Inhibition of LPS-induced ERK phosphorylation in mouse RAW264.7 cell at 5 uM preincubated for 3 hrs followed by LPS-stimulation and measured after 1 hr by Western blot analysis (reference value: 6.92); format: cell-based
[10] = tested on: RAW264.7; experiment: Inhibition of LPS-induced ERK phosphorylation in mouse RAW264.7 cell at 10 uM preincubated for 3 hrs followed by LPS-stimulation and measured after 1 hr by Western blot analysis (reference value: 6.92); format: cell-based
[11] = tested on: RAW264.7; experiment: Inhibition of LPS-induced ERK protein expression in mouse RAW264.7 cell at 2.5 uM preincubated for 3 hrs followed by LPS-stimulation and measured after 1 hr by Western blot analysis (reference value: 1.13); format: functional
[12] = tested on: RAW264.7; experiment: Inhibition of LPS-induced ERK protein expression in mouse RAW264.7 cell at 5 uM preincubated for 3 hrs followed by LPS-stimulation and measured after 1 hr by Western blot analysis (reference value: 1.13); format: functional
[13] = tested on: RAW264.7; experiment: Inhibition of LPS-induced ERK protein expression in mouse RAW264.7 cell at 10 uM preincubated for 3 hrs followed by LPS-stimulation and measured after 1 hr by Western blot analysis (reference value: 1.13); format: functional
[14] = tested on: RAW264.7; experiment: Inhibition of LPS-induced JNK phosphorylation in mouse RAW264.7 cell at 2.5 uM preincubated for 3 hrs followed by LPS-stimulation and measured after 1 hr by Western blot analysis (reference value: 8.88); format: cell-based
[15] = tested on: RAW264.7; experiment: Inhibition of LPS-induced JNK phosphorylation in mouse RAW264.7 cell at 5 uM preincubated for 3 hrs followed by LPS-stimulation and measured after 1 hr by Western blot analysis (reference value: 8.88); format: cell-based
[16] = tested on: RAW264.7; experiment: Inhibition of LPS-induced JNK phosphorylation in mouse RAW264.7 cell at 10 uM preincubated for 3 hrs followed by LPS-stimulation and measured after 1 hr by Western blot analysis (reference value: 8.88); format: cell-based
[17] = tested on: RAW264.7; experiment: Inhibition of LPS-induced JNK protein expression in mouse RAW264.7 cell at 2.5 uM preincubated for 3 hrs followed by LPS-stimulation and measured after 1 hr by Western blot analysis (reference value: 1.21); format: functional
[18] = tested on: RAW264.7; experiment: Inhibition of LPS-induced JNK protein expression in mouse RAW264.7 cell at 5 uM preincubated for 3 hrs followed by LPS-stimulation and measured after 1 hr by Western blot analysis (reference value: 1.21); format: functional
[19] = tested on: RAW264.7; experiment: Inhibition of LPS-induced JNK protein expression in mouse RAW264.7 cell at 10 uM preincubated for 3 hrs followed by LPS-stimulation and measured after 1 hr by Western blot analysis (reference value: 1.21); format: functional
[20] = target: T1, MAP kinase p38 (Mus musculus) (UniProt P47811+O08911+Q9WUI1+Q9Z1B7); experiment: Inhibition of LPS-induced p38 MAPK phosphorylation in mouse RAW264.7 cell at 2.5 uM preincubated for 3 hrs followed by LPS-stimulation and measured after 1 hr by Western blot analysis (reference value: 5.59); format: cell-based
[21] = target: T1, MAP kinase p38 (Mus musculus); experiment: Inhibition of LPS-induced p38 MAPK phosphorylation in mouse RAW264.7 cell at 5 uM preincubated for 3 hrs followed by LPS-stimulation and measured after 1 hr by Western blot analysis (reference value: 5.59); format: cell-based
[22] = target: T1, MAP kinase p38 (Mus musculus); experiment: Inhibition of LPS-induced p38 MAPK phosphorylation in mouse RAW264.7 cell at 10 uM preincubated for 3 hrs followed by LPS-stimulation and measured after 1 hr by Western blot analysis (reference value: 5.59); format: cell-based
[23] = tested on: RAW264.7; experiment: Inhibition of LPS-induced p38 MAPK protein expression in mouse RAW264.7 cell at 2.5 uM preincubated for 3 hrs followed by LPS-stimulation and measured after 1 hr by Western blot analysis (reference value: 1.1); format: functional
[24] = tested on: RAW264.7; experiment: Inhibition of LPS-induced p38 MAPK protein expression in mouse RAW264.7 cell at 5 uM preincubated for 3 hrs followed by LPS-stimulation and measured after 1 hr by Western blot analysis (reference value: 1.1); format: functional
[25] = tested on: RAW264.7; experiment: Inhibition of LPS-induced p38 MAPK protein expression in mouse RAW264.7 cell at 10 uM preincubated for 3 hrs followed by LPS-stimulation and measured after 1 hr by Western blot analysis (reference value: 1.1); format: functional
[26] = tested on: RAW264.7; experiment: Inhibition of LPS-induced JNK phosphorylation in mouse RAW264.7 cell preincubated for 3 hrs followed by LPS-stimulation and measured after 1 hr by Western blot analysis; format: cell-based

**Q.** Which fold change (FC) [1] does the source give for COc1cc(OC)c2c(O)c3c(=O)cc(C)oc3c(-c3c(O)cc4cc(O)c5c(=O)cc(C)oc5c4c3OC)c2c1 (atropisomer aS) [ASPERPYRONE A] here?
**A.** 3.28

**Q.** And the fold change (FC) [2]?
**A.** 2.57

**Q.** What about the fold change (FC) [3] of the same compound?
**A.** 1.54

**Q.** What about the fold change (FC) [4] of the same compound?
**A.** 1.99

**Q.** And the fold change (FC) [5]?
**A.** 1.28

**Q.** What about the fold change (FC) [6] of the same compound?
**A.** 0.89

**Q.** And the Activity [7]?
**A.** Active

**Q.** And the fold change (FC) [8]?
**A.** 7.21

**Q.** What about the fold change (FC) [9] of the same compound?
**A.** 7.31

**Q.** And the fold change (FC) [10]?
**A.** 7.03

**Q.** What about the “fold change (FC)” value [11] of the same compound?
**A.** 1.08

**Q.** And the “fold change (FC)” value [12]?
**A.** 1.09

**Q.** And the “fold change (FC)” value [13]?
**A.** 1.1

**Q.** And the fold change (FC) [14]?
**A.** 8.73

**Q.** And the fold change (FC) [15]?
**A.** 4.02

**Q.** What about the fold change (FC) [16] of the same compound?
**A.** 3.08

**Q.** And the “fold change (FC)” value [17]?
**A.** 1.12

**Q.** And the “fold change (FC)” value [18]?
**A.** 1.16

**Q.** What about the “fold change (FC)” value [19] of the same compound?
**A.** 1.19

**Q.** And the fold change (FC) [20]?
**A.** 5.63

**Q.** What about the fold change (FC) [21] of the same compound?
**A.** 5.63

**Q.** What about the fold change (FC) [22] of the same compound?
**A.** 5.66

**Q.** And the “fold change (FC)” value [23]?
**A.** 1.12

**Q.** What about the “fold change (FC)” value [24] of the same compound?
**A.** 0.98

**Q.** And the “fold change (FC)” value [25]?
**A.** 1.05

**Q.** What about the inhibition [26] of the same compound?
**A.** Dose-dependent effect
